These results are taken from US20250052769A1, “MIMOTOPES OF ARA H 2 AND USES OF THE SAME TO DIAGNOSE PEANUT ALLERGIES” (The Regents of the University of Colorado, A Body Corporate, priority 2023, published 2025).

The subject of test [1] is Ara h 2-specific IgE. In words: Biotin/streptavidin ELISA of serum IgE binding to peptides. More on the design: species or system human. To be noted: for IgE binding by ELISA, Biotide peptides: serum pool at 10 IU/ml Ara h 2-sIgE, 20-30% pure Biotide peptides at 1 nM, Bt-anti-HuIgE 1:3,000 (FIG. 5A, 6A); for IgE binding by ELISA, purified peptides: serum pool at 10 IU/ml, 95-97% pure peptides at 5 nM, Bt-anti-HuIgE 1:500 (FIG. 5B, 6B). The source says: (§1) To produce the serum pool, 10 individual sera were pooled with the concentration of Ara h 2-sIgE normalized so that no one serum was predominant (Table 2). Seven sera were studied in detail, 3 of these were included in the serum pool and 4 independent of the serum pool (Table 2). The Colorado Multiple Institutional Review Board (COMIRB) approved this study. All adult patients and the parents or guardians of minors gave written informed consent. Minors who were >6 years of age, signed an assent.
(§2) Peptides for ELISAs were synthesized with an N-terminal linker arm (Ttds; JPT Peptides, Berlin) followed by biotin at the N terminus. Prior to generating microarrays with high fidelity sequences, we performed screening assays using the Biotide approach (JPT Peptides, Berlin) in which multiple related peptides are synthesized in a cost-effective manner at approximately 20% purity. For validation, selected peptides were also synthesized by standard methods and purified (95-97% pure) by HPLC (JPT Laboratories, Berlin). For all peptides of epitope 3 and the related mimotope studied here, trans-4-hydroxyproline (h) was substituted for second proline in the DPY_P motif as this substitution may enhance binding of IgE. Peptides for microarray assays were synthesized with the Ttds linker arm on the N terminus and printed onto microscope slides treated with a proprietary 3-dimensional surface by JPT Peptides (Berlin).
Streptavidin (InVitrogen) (5 μg/ml) was bound to micro titer plates by overnight incubation in PBS, the plates were washed once with PBST (0.05% Tween 20) and 50 μL of peptides were added at a final concentration of 1-5 nM in PBST for 1 hour at room temperature. Unoccupied streptavidin sites were then saturated with 400 μM biotin in PBS and the samples were probed with diluted sera from allergic subjects diluted in PBST with 0.1% albumin to contain 10 IU/ml of Ara h 2-sIgE. After overnight incubation at 4° C., slides were washed, incubated with HRP-labeled murine monoclonal anti-human IgE (clone HP6029; Southern Biotech 1:500-1:3,000), washed again and developed with TMB (ThermoFisher Scientific). Background binding of serum without peptide (OD=approximately 0.100) was subtracted. We also examined the background of peptide without serum and this was similar to, or lower than, the background of serum without peptide.
(§3) GraphPad Prism (versions 8.4-9.5 for the Macintosh (GraphPad; La Jolla, CA)) was used to generate graphs and for statistical analysis. The following analyses were performed: 1) for dose response curves, multiple unpaired t test with Welch correction for unequal variances; 2) to combine data from multiple assays, the data were normalized within each assay based on IgE binding to the native sequence (epitope 3) or the original sequence (mimotope A147) and expressed binding as percent of binding and 3) to compare differences in IgE binding for a specific alanine substitution, one way ANOVA followed by Dunnet's multiple comparison test.
Background: An ELISA detects its analyte on a solid surface through an enzyme-linked reagent.

The test system of test [2] is Ara h 2-specific IgE. As to the kind of experiment: Peptide microarray of serum IgE binding (dose response and alanine scans). Details: species or system human.
Text: as §1, §2
Each microscope slide contained 21 microarrays and within each microarray, peptides were printed in triplicate. 10-15 spots were not printed with any peptide as control spots. Sera were diluted to contain the same concentrations of Ara h 2-sIgE (usually 10 IU/ml) or at various concentrations for dose response assays and assayed in duplicate arrays on 3-4 separate days as previously described except for use of biotinylated anti-IgE (clone HP6029 from Southern Biotech at 1:1,000). For each microarray assay, the density units of three observations within each microarray were averaged and then the data from duplicate microarrays were averaged. To combine data from multiple independent assays, the signal within each assay was normalized to that of a wild-type peptide and the signal was expressed as a percent of that with the original peptide. Background binding of serum without peptide (300-500 AU) was subtracted. We also examined the background of peptide without serum. Only for the mimotope, this background was higher than the background of serum without peptide and these values (5,000-10,000 AU), which were quite high, were subtracted from the signal of serum with peptide (which bound IgE very strongly (20,000-30,000 AU), instead of subtracting the background of serum without peptide.
Linear sequences of epitope 3 and the mimotope as well as derivative peptides in which each amino acid was sequentially changed to alanine were studied.
as §3

“Also recorded” adds a separate entry of the source. Non-standard residues stand in square brackets, D forms with d. No end group written: not given here. Hyp = O=C(O)[C@@H]1C[C@@H](O)CN1

Regarding “DEDSYERDPYShSQDP (DEDSYERDPYS[Hyp]SQDP) [Epitope 3-Core]”, in the test on Ara h 2-specific IgE [1], the “IgE binding by ELISA, Biotide peptides” value is recorded as “bind IgE almost as well as the 20mer sequence” and the “IgE binding by ELISA, purified peptides” value is “bound similar amounts of IgE; also recorded: No significant differences were seen; also recorded: strong binding”.
On to “Y10: Epitope 3-Core (DEDSYERDPYShSQDP) with amino acid Y10 changed to alanine (DEDSYERDPAS[Hyp]SQDP)”, for which the “Relevance of the residue for IgE binding, alanine scan of Epitope 3-Core with individual sera” value in the test with Ara h 2-specific IgE [2] (7 individual sera (FIG. 2B)) is “relevant for most sera”. The “IgE binding after alanine substitution, density units normalized to WT sequence” value with Ara h 2-specific IgE [2] (alanine scan of Epitope 3-Core, serum pool at 10 IU/ml Ara h 2-sIgE, percent of WT signal (FIG. 1B)) was 9±6%.
Consider LLDPYAPRAWTK [A147], for which, in the test on Ara h 2-specific IgE [1], the “IgE binding by ELISA, Biotide peptides” value is given as “did not bind IgE well”.
As for “ERDPYShSQDPYShSPYDRR (ERDPYS[Hyp]SQDPYS[Hyp]SPYDRR) [20mer version of epitope 3]”, the “IgE binding by ELISA, purified peptides” value in the test with Ara h 2-specific IgE [1] is reported as “bound similar amounts of IgE”.
As to “LLDPYAhRAWTK (LLDPYA[Hyp]RAWTK) [mimotope with P->h]”, the “IgE binding by ELISA, Biotide peptides” value is listed as “bound more IgE at all doses than did the original mimotope” in the test on Ara h 2-specific IgE [1] and “binding was dramatically enhanced” with Ara h 2-specific IgE [1] (listed as SEQ ID NO:2). Further, the results for the “IgE binding by ELISA, purified peptides” value with Ara h 2-specific IgE [1], in the test with Ara h 2-specific IgE [1] (listed as SEQ ID NO:2) and in the test with Ara h 2-specific IgE [1] (listed as substituted mimotope) were “No significant differences were seen”, “bound similar amounts of IgE as did Epitope 3-Core” and “bound amounts of IgE similar to that of the Epitope 3-Core peptide”, respectively. Also, the “Microarray signal of serum with peptide” value with Ara h 2-specific IgE [2] (before background subtraction) was 20,000-30,000 AU. The “IgE binding in microarray format at Ara h 2 sIgE of 0.3 kU/L” value in the test on Ara h 2-specific IgE [2] (serum pool at 0.3 kU/L Ara h 2 sIgE, p<0.05 (FIG. 7)) is “bound significantly more IgE than did Epitope 3-Core”. The “IgE binding in microarray format, dose response of serum” value in the test on Ara h 2-specific IgE [2] (serum pool at various doses, P substituted with h in all peptides (FIG. 7)) is “tended to bind more IgE at lower doses of serum”.
